Legend:
[1] = biological target: Inosine-5'-monophosphate dehydrogenase (Mycobacterium tuberculosis (strain ATCC 25618 / H37Rv)) (UniProt P9WKI7); experiment: Inhibition of Mycobacterium tuberculosis H37Rv IMPDH2 at 1 uM using IMP as substrate incubated for 20 mins in presence of NAD by UV spectrophotometric analysis relative to control
[2] = Inhibition of Mycobacterium tuberculosis IMPDH2
[3] = Inhibition of Helicobacter pylori IMPDH using IMP as substrate preincubated for 10 mins followed by addition of substrate and measured after 45 mins in presence of NAD by fluorescence based assay
[4] = biological target: Inosine-5'-monophosphate dehydrogenase 2 (Homo sapiens) (UniProt P12268); experiment: Inhibition of human IMPDH2 relative to control; details: concentration not given here
[5] = Inhibition of Francisella tularensis IMPDH expressed in Escherichia coli BL21(DE3) deletion in guaB gene using IMP as substrate preincubated for 10 mins followed by substrate addition in presence of NAD by spectrophotometer
[6] = Inhibition of Helicobacter pylori IMPDH

Sequence of Inosine-5'-monophosphate dehydrogenase (Mycobacterium tuberculosis (strain ATCC 25618 / H37Rv)) (P9WKI7 whole entry): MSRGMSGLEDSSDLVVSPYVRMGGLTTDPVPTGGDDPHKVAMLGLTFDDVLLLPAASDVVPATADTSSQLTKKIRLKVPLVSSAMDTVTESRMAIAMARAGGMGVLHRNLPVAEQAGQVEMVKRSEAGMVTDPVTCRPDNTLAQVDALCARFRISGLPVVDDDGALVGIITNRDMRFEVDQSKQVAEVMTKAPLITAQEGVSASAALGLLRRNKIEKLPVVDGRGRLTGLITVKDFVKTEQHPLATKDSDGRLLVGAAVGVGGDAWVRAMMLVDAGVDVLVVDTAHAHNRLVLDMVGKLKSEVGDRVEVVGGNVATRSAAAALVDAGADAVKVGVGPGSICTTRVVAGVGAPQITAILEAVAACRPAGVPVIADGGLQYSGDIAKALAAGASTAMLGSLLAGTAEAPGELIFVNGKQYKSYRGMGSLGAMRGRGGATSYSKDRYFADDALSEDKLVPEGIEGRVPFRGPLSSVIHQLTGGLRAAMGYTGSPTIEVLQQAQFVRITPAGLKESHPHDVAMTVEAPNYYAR
Sequence of Inosine-5'-monophosphate dehydrogenase 2 (Homo sapiens) (P12268 2-514 limits assumed): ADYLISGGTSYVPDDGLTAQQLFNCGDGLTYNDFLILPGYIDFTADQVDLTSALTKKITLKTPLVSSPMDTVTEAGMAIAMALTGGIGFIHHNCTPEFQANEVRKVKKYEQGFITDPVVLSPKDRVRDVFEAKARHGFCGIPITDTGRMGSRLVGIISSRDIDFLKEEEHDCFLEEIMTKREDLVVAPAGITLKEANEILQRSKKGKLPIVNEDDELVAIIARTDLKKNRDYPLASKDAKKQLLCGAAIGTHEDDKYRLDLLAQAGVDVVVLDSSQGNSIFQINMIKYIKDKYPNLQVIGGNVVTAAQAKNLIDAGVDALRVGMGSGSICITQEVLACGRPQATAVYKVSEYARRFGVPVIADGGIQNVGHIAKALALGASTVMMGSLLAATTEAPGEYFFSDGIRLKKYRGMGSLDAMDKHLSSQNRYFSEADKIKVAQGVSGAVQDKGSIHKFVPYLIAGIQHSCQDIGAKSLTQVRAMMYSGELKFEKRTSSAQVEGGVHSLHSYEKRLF

With O=C(Nc1ccc(Cl)c(Cl)c1)Nc1ccc(Br)cc1F the inhibition [1] was greater than 90%.

Compound COc1c(C)c2c(c(O)c1C/C=C(\C)CCC(=O)O)C(=O)OC2 [MYCOPHENOLIC ACID] has an IC50 [2] of 27.2 µM.

For CC(C(=O)Nc1ccc2c(c1)COC2=O)c1ccc(C(=O)c2ccccc2)cc1 (stereo not drawn), the IC50 [2] was 6.2 µM.

Compound COc1cccc(Cn2cc(COc3ccc(-c4nnc(C)o4)cc3)nn2)c1 has an IC50 [3] of 4.06 µM.

Compound Cc1ccc([N+](=O)[O-])cc1NC(=O)Nc1cccc(Cl)c1 has an inhibition [1] greater than 90%.

O=C(Cc1ccc(F)c2ccccc12)Nc1ccc2c(c1)COC2=O showed an IC50 [2] of 3.2 µM and an inhibition [4] of less than 0.1%.

C[C@H](Oc1cccc(Cl)c1Cl)C(=O)Nc1ccc2oc(-c3ccc(C(=O)NO)cc3)nc2c1 gave a Ki [5] of 0.013 µM.

Compound C[C@H](Oc1cccc2ccccc12)C(=O)Nc1ccc2oc(-c3ccncc3)nc2c1 has a Ki [5] of 0.03 µM.

Compound O=C(Cn1cc(C(=O)Nc2cccnc2)c2ccccc21)Nc1ccc(Br)cc1 has an IC50 [6] of 2.2 µM.

Work on C[C@H](Oc1cccc(Cl)c1Cl)C(=O)Nc1ccc2oc(-c3ccncc3)nc2c1 yielded a Ki [5] of 0.022 µM.

For O=C(Nc1cccc([N+](=O)[O-])c1)Nc1ccc(Cl)c(C(F)(F)F)c1, the inhibition [1] was greater than 90%.

With C[C@H](Oc1cccc(Cl)c1Cl)C(=O)Nc1ccc2oc(-c3ccc(C(=O)O)cc3)nc2c1 the Ki [5] was 0.0155 µM.

Source: ChEMBL document CHEMBL4354787, “Inhibitors of inosine 5'-monophosphate dehydrogenase as emerging new generation antimicrobial agents” (Medchemcomm, 2019)
